Assays:
[1] = target: ABCB1 (Homo sapiens, UniProt P08183); experiment: vanadate-sensitive ATPase stimulation in membrane vesicles; type: biochemical
[2] = target: T1, ABCG2 (Homo sapiens, UniProt Q9UNQ0); experiment: as above; type: biochemical
T1 sequence (Q9UNQ0 1-655): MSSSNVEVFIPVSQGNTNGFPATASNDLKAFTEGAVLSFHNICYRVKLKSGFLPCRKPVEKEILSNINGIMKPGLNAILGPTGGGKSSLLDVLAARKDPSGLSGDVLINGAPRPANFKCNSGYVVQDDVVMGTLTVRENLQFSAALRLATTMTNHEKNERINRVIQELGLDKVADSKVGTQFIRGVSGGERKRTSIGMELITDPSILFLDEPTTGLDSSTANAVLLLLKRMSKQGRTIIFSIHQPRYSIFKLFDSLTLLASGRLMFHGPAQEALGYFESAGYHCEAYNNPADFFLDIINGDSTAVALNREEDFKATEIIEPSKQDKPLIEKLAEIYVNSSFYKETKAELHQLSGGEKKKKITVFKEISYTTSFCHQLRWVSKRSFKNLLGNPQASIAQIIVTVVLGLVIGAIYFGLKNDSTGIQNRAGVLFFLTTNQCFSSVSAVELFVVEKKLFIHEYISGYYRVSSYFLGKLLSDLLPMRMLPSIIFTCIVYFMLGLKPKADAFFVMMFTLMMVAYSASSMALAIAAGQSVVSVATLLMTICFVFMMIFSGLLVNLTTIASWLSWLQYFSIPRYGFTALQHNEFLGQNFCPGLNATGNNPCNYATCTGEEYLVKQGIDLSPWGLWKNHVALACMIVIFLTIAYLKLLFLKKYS

ABCB1, sequence (P08183 whole entry): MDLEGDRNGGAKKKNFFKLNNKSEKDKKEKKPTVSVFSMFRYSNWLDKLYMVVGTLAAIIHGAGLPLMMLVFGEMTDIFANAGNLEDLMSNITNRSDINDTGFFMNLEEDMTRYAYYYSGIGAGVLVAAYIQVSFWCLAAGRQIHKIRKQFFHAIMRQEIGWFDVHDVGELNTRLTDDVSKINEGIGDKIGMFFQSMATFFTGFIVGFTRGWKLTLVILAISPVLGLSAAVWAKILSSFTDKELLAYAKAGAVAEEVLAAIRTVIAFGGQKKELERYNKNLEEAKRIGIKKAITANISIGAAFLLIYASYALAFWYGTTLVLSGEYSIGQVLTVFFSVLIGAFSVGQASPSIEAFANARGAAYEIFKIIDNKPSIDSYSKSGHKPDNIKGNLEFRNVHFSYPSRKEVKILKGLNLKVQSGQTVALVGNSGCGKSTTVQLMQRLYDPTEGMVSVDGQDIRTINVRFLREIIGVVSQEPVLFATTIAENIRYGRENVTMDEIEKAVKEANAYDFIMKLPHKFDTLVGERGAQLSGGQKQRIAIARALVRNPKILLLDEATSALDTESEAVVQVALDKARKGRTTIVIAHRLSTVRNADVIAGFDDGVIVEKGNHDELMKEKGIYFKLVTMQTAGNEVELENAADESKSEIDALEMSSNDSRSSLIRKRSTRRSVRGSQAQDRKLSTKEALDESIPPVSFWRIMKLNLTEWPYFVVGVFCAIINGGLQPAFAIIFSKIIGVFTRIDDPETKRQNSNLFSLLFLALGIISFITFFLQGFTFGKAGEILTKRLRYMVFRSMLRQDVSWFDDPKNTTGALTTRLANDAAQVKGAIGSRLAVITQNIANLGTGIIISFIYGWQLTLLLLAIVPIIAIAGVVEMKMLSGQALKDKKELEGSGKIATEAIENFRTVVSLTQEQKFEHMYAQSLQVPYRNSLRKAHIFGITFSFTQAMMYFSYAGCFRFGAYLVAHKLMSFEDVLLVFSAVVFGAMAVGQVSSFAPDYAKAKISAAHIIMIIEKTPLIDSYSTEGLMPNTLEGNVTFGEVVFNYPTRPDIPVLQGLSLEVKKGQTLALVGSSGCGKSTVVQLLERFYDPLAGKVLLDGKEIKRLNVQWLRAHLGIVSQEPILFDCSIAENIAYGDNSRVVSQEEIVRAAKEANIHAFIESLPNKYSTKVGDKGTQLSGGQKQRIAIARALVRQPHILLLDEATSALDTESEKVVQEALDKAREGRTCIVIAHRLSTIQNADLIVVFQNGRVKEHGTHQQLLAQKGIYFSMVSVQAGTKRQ

Question: With `COc1cc2c(cc1OC)CN(C(=O)/C=C/c1c(-c3ccccc3)n(C)c3ncccc13)CC2` [SIS3] as the molecule, how does the EC50 [1] read?
Answer: ~160 nM

Question: What about the EC50 [2] of the same molecule?
Answer: ~60 nM
